Experimental data taken from article PMC3466060 (2011).

Test system: 3′-Fl-AM1A-(18)-Rhd (RNA, riboswitch) GAGGGUGGAACCGCGCUUCGGCGUCCCUC
Assay: FRET binding titration
Conditions: 50 mM NaCl, 5 mM MgCl2

In the case of `O=C(Cc1ccccc1)OCC1OC(=O)NC1CN1CCN(c2ccccc2)CC1` (racemic), the Kd is reported as > 100 µM.
